Columns and labels:
[1] = test system: parturient paresis in cows (milk fever), ketosis (acetonomia), and paraplegia gravidarum; experiment: Methenamine along with magnesium salts in parturient paresis, ketosis and paraplegia gravidarum; format: in vivo
Text: Methenamine breaks down to formaldehyde and ammonia in areas of inflammation where formaldehyde acts as anti-inflammatory and bactericidal agent. Methenamine also increases membrane permeability, which helps to eliminate antibacterial toxic material from the body. […] After the fifteen minutes of administration, the condition of cows that had parturient paresis (milk fever), ketosis (acetonomia) started to improve and the cows began rumination again.

[2] = powder; cited from earlier work
Dogs = details: up to 600 mg/kg IV, single dose; cited from earlier work
rats [3] = details: up to 600 mg/kg IV, single dose; cited from earlier work
rabbits = details: reproduction studies in rabbits; cited from earlier work
rats [4] = details: reproduction studies in rats; cited from earlier work
inflammatory disorders = experiment: Magnesium sulfate in distilled water by intraperitoneal injection in a cow; format: in vivo; details: approximately 40 grams, cow of 500 kg
Text: After several years of using magnesium salts, the dose was reduced to an average dose of 3–20 grams for a 500 kg cow to get the same therapeutic effect. Therefore, the intraperitoneal administration, compared to other methods of drug administration, is a safe method because it avoids the toxic side effects through first-pass hepatic metabolism which permits the organism to create the abundance of magnesium used for recovery and healing. In fact, the administered dose can be higher than the traditional toxic level doses.

cow = experiment: Solution / magnesium in complicated cases with intoxication; format: in vivo
Protocol: For example, during calving of weak and strong contractions of the uterus, atony of the rumen, reticulum and abamasum, colic and constipation. In fact, after administration of the solution, the effect can be seen even in complicated cases when intoxication takes place, the temperature of the body is increased, and there is loss of appetite. In this situation, the cow starts to ruminate and the general condition improves in 10 to 15 minutes after administration of the solution.

monkeys = monkeys from six months old, double the normal dose; cited from earlier work
[5] = after administration of magnesium

## C1N2CN3CN1CN(C2)C3 [methenamine, methenamine (hexamethylenetetramine, C6H12N4)]
[1]; 20 grams per 500 kg, along with magnesium salts, other therapies unsuccessful
  treatment outcome: successful treatment
[1]; parturient paresis (milk fever), ketosis (acetonomia)
  time after administration at which condition started to improve and rumination began: fifteen
[2]
  solubility in water: very soluble in water
Dogs
  toxic effects: without evidence of toxic effects
Rats [3]
  toxic effects: without evidence of toxic effects
rabbits
  harm to the fetus: have not revealed evidence of harm to the fetus
Rats [4]
  harm to the fetus: have not revealed evidence of harm to the fetus

## O.O.O.O.O.O.O.O=S(=O)([O-])[O-].[Mg+2] [magnesium sulfate, magnesium sulfate (MgSO4×7H2O)]
Inflammatory disorders
  side effects: without any side effects
  treatment outcome: successful treatment

## [Mg+2] [magnesium]
cow; [5]
  day of complete recovery: seventh
  day on which the general condition improved: third
cow; cows that previously did not have estrus
  day of estrus after administration: seventh

## C1N2CN3CN1CN(C2)C3 [Methenamine hippurate]
monkeys
  adverse effects: without adverse effects

From patent publication US7097860B2, “Method and composition for treatment of inflammatory and inflammation-related disorders” (priority 2001, dated 2006)
